Each block holds one compound with its values, some of them ahead of it.
How the values were obtained:
[1] = test system: STZ-induced diabetic rats; details: earlier study of the group; cited from earlier work
hPTP1B1–400 = molecular target: T1, hPTP1B1–400 (Homo sapiens, UniProt P18031); assay: PTP1B inhibition, pNPP hydrolysis, long form; assay type: biochemical; details: pNPP substrate, 15 min 37 °C, pH 6.8; ± S.D
T1 construct: h PTP1B 1–400 IC 50 (μM ± S.D); made in house
T1 sequence (P18031 1-400): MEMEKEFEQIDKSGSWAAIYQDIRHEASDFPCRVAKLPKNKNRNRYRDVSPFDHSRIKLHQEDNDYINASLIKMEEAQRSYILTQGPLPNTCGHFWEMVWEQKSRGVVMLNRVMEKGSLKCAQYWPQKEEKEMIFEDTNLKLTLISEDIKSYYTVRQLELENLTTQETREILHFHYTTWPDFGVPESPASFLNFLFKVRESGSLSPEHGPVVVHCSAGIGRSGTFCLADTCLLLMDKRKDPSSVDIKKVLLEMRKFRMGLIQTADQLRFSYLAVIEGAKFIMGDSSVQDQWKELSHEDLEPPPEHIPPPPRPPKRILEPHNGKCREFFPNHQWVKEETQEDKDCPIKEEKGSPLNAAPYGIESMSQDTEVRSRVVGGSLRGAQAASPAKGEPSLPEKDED
Method: The inhibitory activity of PTP1B was assessed using the long form of the PTP1B enzyme (hPTP1B1–400). This enzyme comprises a highly conserved N-terminal catalytic domain, known as the PTP domain (PTP1B1–300), in addition to an intrinsically disordered regulatory domain (PTP1B301–400).
The IC50 values obtained from these tests are detailed in Table .
Aliquots of 0–10 μL of the test compounds (triplicate) were taken and incubated for 15 min at 37 °C with 85 μL of Tris buffer solution (50 mM, pH 6.8) containing PTP1B enzyme and 5 μL of p-nitrophenyl phosphate substrate (pNPP, 10 mM). The absorbance of the hydrolysis product, p-nitrophenol (pNP), was measured at 405 nm using a 96-microplate absorbance reader (Accuris SmartReader 96). The inhibitory activity was determined according to eq . %enzyme=(A405b/A405c)×100 1 Where: % enzyme is the percentage of inhibition for PTP1B or TCPTP
The IC50 was calculated using regression analysis, eq : %inhibition=A100/1+(I/IC50)^s 2 Where: A100: Maximum inhibition

[2] = test system: insulin-resistant HepG2 cells; assay: Western blotting, insulin-resistant HepG2 model; assay type: cell-based, human; details: 24 h
Method: (§1) HepG2 cells were obtained directly from ATCC (HB-8065) and cultured in DMEM with low glucose, supplemented with fetal bovine serum, 100 U/mL penicillin G, and […] streptomycin. The media was freshly prepared and sterilized by filtration. Cells were maintained with a maximum of 10 passages before being discarded. For cell counting, the cells were washed twice with phosphate-buffered saline (PBS), trypsinized, and counted using a Neubauer chamber. For the insulin-resistant model, 75,000 cells per well were seeded in 6-well plates at 37 °C in 5% CO2 and cultured for 72 h. Subsequently, insulin (0.1 μM) was added to induce insulin resistance for 24 h. After this period, inhibitors were incubated for 24 h, followed by a final 30 min insulin stimulation (0.1 μM) before protein extraction. For the normal model, 75,000 cells per well were seeded in 6-well plates at 37 °C in 5% CO2 and cultured for 96 h. After that, the cells were incubated with the inhibitors for 24 h, followed by protein extraction.
(§2) Treated cells were washed twice with 1 mL of PBS, and proteins were extracted using 300 μL of a buffer solution containing 10% sodium deoxycholate in 10% TEAB, supplemented with a protease and phosphatase inhibitor cocktail. The extracts were heated at 80 °C for 5 min and dissociated by repeated passages through an insulin syringe. The cell extracts were centrifuged at 15,000 rpm for 15 min at 4 °C, and the supernatant was collected. Protein quantification was performed using the bicinchoninic acid assay, and aliquots were prepared for Western blotting. SDS-PAGE was conducted, and proteins were transferred onto a nitrocellulose membrane. The membrane was blocked with 10% skim milk in TBST for 1 h and incubated overnight with primary antibodies (1:400 dilution). Secondary antibodies conjugated to horseradish peroxidase were diluted 1:2,000, and the membranes were incubated for 1 h at room temperature. Blots were visualized using the ChemiDoc MP (Bio-Rad), and densitometric analysis was performed with ImageJ (U.S. National Institutes of Health). Statistical analyses were conducted using GraphPad Prism 8.0.
resistance model in HepG2 cells . a) Western blotting representative analysis (n=3) of PTP1B, p -AKT, p-IRS1 and p-STAT3 levels
of HepG2 cells treated with the compounds at 24 h of treatment. β-actin was employed as loading control. b) Densitometric
analysis of western blot images employing ImageJ analysis software. Bar graphs represent the mean ± SEM of normalized values.
The control levels were set to 1. Asterisks indicate statistical significance according to the Dunn test. p* < 0.05.
(§3) (1 picture or pasted object on this page, not shown here)

HepG2 cells = assay: Western blotting, HepG2 normal model; assay type: cell-based, human; details: 24 h
Method: as §1, §2
compounds at 24 h of treatment. β-actin was employed as loading control. b) Densitometric analysis of western blot images
employing ImageJ analysis software. Bar graphs represent the mean ± SEM of normalized values. The control levels were set to
1. Asterisks indicate statistical significance according to the Dunn test. p* < 0.05
as §3

normoglycemic CD1 mice = assay: Oral glucose tolerance test (OGTT); assay type: in vivo; details: 45 mg/kg, glucose 2 g/kg
Method: The studies were carried out on compounds 4b, 4g, and 5g using both normoglycemic CD1 mice and a mouse model of noninsulin-dependent diabetes mellitus (NIDDM). An oral glucose tolerance test (OGTT) was conducted on the normoglycemic mice to evaluate the hypoglycemic activity of the compounds, while an insulin tolerance test (ITT) was performed on hyperglycemic CD1 mice to assess the compounds’ capacity to enhance insulin sensitivity in streptozotocin-induced diabetic mice. Pioglitazone and GA were included as positive controls.
Healthy six-week-old male CD-1 mice, weighing between 30 and 40 g, were maintained at a temperature of 25 ± 2 °C, under a 12-h light/dark cycle and 45–65% humidity throughout the experimental period. The mice were provided with a rodent pelleted diet (Harlan Laboratories, Indianapolis, USA) and had access to water ad libitum. Sixteen hours before the experiment, all mice were fasted but still had free access to water. All animal procedures were conducted in accordance with the Mexican Federal Regulations for Animal Experimentation and Care (SAGARPA, NOM-062-ZOO-1999, Mexico) and received approval from the Institutional Animal Care and Use Committee, following guidelines outlined in the US National Institutes of Health publication (No. 85–23, revised 1985).
Animals were categorized into five groups, each consisting of four mice (n = 4). The experimental groups received an oral suspension of compounds 4b, 4g, and 5g, prepared in a 10% Tween 20/water solution, at a dosage of 50 mg/kg body weight. A control group was treated with only the 10% Tween 20 solution. The final group was administered pioglitazone at a dose of 45 mg/kg, which is recognized as a reference drug for insulin sensitization. To evaluate glucose levels, blood samples were collected from the tails of the mice at 0, 30, 60, 90, and 120 min after the administration of the vehicle, test compound, or drug. Blood glucose concentration was measured using a commercial glucometer (Accu-Chek, Performa; Roche) and the enzymatic glucose dehydrogenase method. The percentage variation in glycemia was calculated by comparing the selected postadministration glycemia (G x ) with the initial value (G0) using the following formula: %variationofglycemia=[(Gx−G0)/G0]×100 where G0 represents the initial glycemia values and Gx indicates the glycemia values at +30, + 60, + 90, and +120 min, respectively.
To determine the hypoglycemic effect of the compounds on nondiabetic animals, the compounds 4b, 4g, and 5g were administered intragastrically. Pioglitazone was used as a positive control. After 30 min, five mice/group (CD-1) were subjected to OGTT. The test was performed using glucose (2 g/kg) as substrate.

[3] = test system: STZ-induced diabetic CD-1 mice; assay: Insulin tolerance test (ITT); assay type: in vivo; details: 45 mg/kg, insulin 0.75 IU after 30 min
Method: The studies were carried out on compounds 4b, 4g, and 5g using both normoglycemic CD1 mice and a mouse model of noninsulin-dependent diabetes mellitus (NIDDM). An oral glucose tolerance test (OGTT) was conducted on the normoglycemic mice to evaluate the hypoglycemic activity of the compounds, while an insulin tolerance test (ITT) was performed on hyperglycemic CD1 mice to assess the compounds' capacity to enhance insulin sensitivity in streptozotocin-induced diabetic mice. Pioglitazone and GA were included as positive controls. […] Healthy six-week-old male CD-1 mice, weighing between 30 and 40 g, were maintained at a temperature of 25 ± 2 °C, under a 12-h light/dark cycle and 45-65% humidity throughout the experimental period. The mice were provided with a rodent pelleted diet (Harlan Laboratories, Indianapolis, USA) and had access to water ad libitum. Sixteen hours before the experiment, all mice were fasted but still had free access to water. All animal procedures were conducted in accordance with the Mexican Federal Regulations for Animal Experimentation and Care (SAGARPA, NOM-062-ZOO-1999, Mexico) and received approval from the Institutional Animal Care and Use Committee, following guidelines outlined in the US National Institutes of Health publication (No. 85-23, revised 1985). Streptozotocin (STZ) was dissolved in citrate buffer (pH 4.5), while nicotinamide was dissolved in a normal physiological saline solution. The noninsulin-dependent diabetes (NIDD) mouse model was induced in overnight-fasted mice through a single intraperitoneal injection of STZ (100 mg/kg). Nicotinamide was administered 15 min prior, at a dose of 20 mg/kg via intraperitoneal injection. […] Roche). […] Animals were categorized into five groups, each consisting of four mice (n = 4). The experimental groups received an oral suspension of compounds 4b, 4g, and 5g, prepared in a 10% Tween 20/water solution, at a dosage of 50 mg/kg body weight. A control group was treated with only the 10% Tween 20 solution. The final group was administered pioglitazone at a dose of 45 mg/kg, which is recognized as a reference drug for insulin sensitization. To evaluate glucose levels, blood samples were collected from the tails of the mice at 0, 30, 60, 90, and 120 min after the administration of the vehicle, test compound, or drug. Blood glucose concentration was measured using a commercial glucometer (Accu-Chek, Performa; Roche) and the enzymatic glucose dehydrogenase method. The percentage variation in glycemia was calculated by comparing the selected postadministration glycemia (G x ) with the initial value (G0) using the following formula: %[…]=[(Gx-G0)/G0]×100 where G0 represents the initial glycemia values and Gx indicates the glycemia values at +30, + 60, + 90, and +120 min, respectively. To evaluate the ability of GA derivatives to enhance insulin sensitivity in STZ-induced diabetic CD-1 mice, compounds 4b, 4g, and 5g were tested. Glycyrrhetinic acid (GA) and Pioglitazone served as positive controls. The GA derivatives and the positive controls were administered to the diabetic animals, followed by the administration of human rapid-acting insulin (0.75 IU) after 30 min. Subsequently, glucose levels were measured every 15 min.

- IC50 (hPTP1B1–400): 2140 ± 150 nM
Structure (SMILES): Cc1ccc(-n2ncc3c2C(C)(C)[C@@H]2CC[C@]4(C)[C@H](C(=O)C=C5[C@@H]6C[C@@](C)(C(=O)O)CC[C@]6(C)CC[C@]54C)[C@@]2(C)C3)cc1 [FC-122, reference compound]
- antihyperglycemic effects [1]: superior antihyperglycemic effects compared to glibenclamide and acarbose, but did not outperform pioglitazone

Structure (SMILES): CN(C)C(=N)N=C(N)N [Metformin]
- AKT phosphorylation (p-AKT) levels [2]: notable increase
- PTP1B levels [2]: neither metformin, ursolic acid, nor the GA derivatives significantly reduced PTP1B levels
- AKT phosphorylation (p-AKT) levels (HepG2 cells): notable increase
- PTP1B levels (HepG2 cells): neither metformin, ursolic acid, nor the GA derivatives significantly reduced PTP1B levels

Structure (SMILES): CCc1ccc(CCOc2ccc(CC3SC(=O)NC3=O)cc2)nc1 (centres unmarked) [Pioglitazone, reference compound]
- hypoglycemic effect in OGTT (normoglycemic CD1 mice): the most significant reduction in the hyperglycemic peak
- glycemia variation in ITT [3]: markedly decrease glycemia variation

— article PMC12921516 (ACS Bio & Med Chem Au, 2025)
